Test results from PubChem BioAssay (NCI).
Values joined by “and” are separate entries in the source; they are usually repeats but may differ in a detail not shown here. Identical values can stand only once.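 Cultured in 96-well plates, cells were exposed to test compound for 48 hours across five concentrations. At the GI50, growth is halved. TGI denotes the concentration required for complete inhibition of growth.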

Legend:
Assay in all cases: NCI anticancer screen, dose series, 48 h
786-0 renal = test system: 786-0 renal
COLO 205 colon = test system: COLO 205 colon
HL-60(TB) leukemia = test system: HL-60(TB) leukemia
KM12 colon = test system: KM12 colon
LOX IMVI melanoma = test system: LOX IMVI melanoma
M14 melanoma = test system: M14 melanoma
MDA-MB-435 = test system: MDA-MB-435
T-47D breast = test system: T-47D breast
U251 CNS = test system: U251 CNS
UACC-62 melanoma = test system: UACC-62 melanoma

SMILES | GI50 (786-0 renal) [µM] | TGI (786-0 renal) | GI50 (COLO 205 colon) [µM] | TGI (COLO 205 colon) | GI50 (HL-60(TB) leukemia) [µM] | TGI (HL-60(TB) leukemia) | GI50 (KM12 colon) [µM] | TGI (KM12 colon) | GI50 (LOX IMVI melanoma) [µM] | TGI (LOX IMVI melanoma) | GI50 (M14 melanoma) [µM] | TGI (M14 melanoma) | GI50 (MDA-MB-435) [µM] | TGI (MDA-MB-435) | GI50 (T-47D breast) [µM] | TGI (T-47D breast) [µM] | GI50 (U251 CNS) [µM] | TGI (U251 CNS) | GI50 (UACC-62 melanoma) [µM] | TGI (UACC-62 melanoma)
COc1ccc(C(=NN=C(N)N)c2ccc(OC)cc2)cc1 | 3.29 | 13.1 µM | 1.79 | 3.97 µM | 2.53 | 8.48 µM | 2.31 | 8.41 µM | 2.91 | 11.4 µM | 2.35 | 6.36 µM | 1.78 | 4.33 µM | 3.21 | 15.1 | 3.72 | 14.1 µM | 3.54 | 14.1 µM
COc1cc(/C=C/c2cc(/C=C/c3ccc(O)c(OC)c3)n(C(=O)Nc3ccccc3Cl)n2)ccc1O | 0.426 | 1.57 µM | 1.49 | 2.91 µM | 0.282 | 0.721 µM | 0.326 | 1.5 µM | 0.193 | 1.39 µM | 0.283 | 1.19 µM | 0.0738 | 0.236 µM | 0.821 | 2.79 | 0.384 | 1.51 µM | 0.425 | 2.5 µM
COc1ccc(CCN(CC(=O)N(CC(N)=O)C2CCC[C@@H]2OCc2ccccc2)C(=O)CN(C(=O)CN(CCc2ccc(Cl)cc2)C(=O)CN(C(=O)CN(C)Cc2ccccc2F)[C@H](C)C2CCCCC2)[C@H](C)C2CCCCC2)cc1OC (stereo not given in full) | 2.14 | > 50 µM | 0.893 | 2.4 µM | 1.21 | 3.24 µM | 1.58 | > 50 µM | 1.08 | 2.77 µM | 1.13 | 4.05 µM | 1.58 | > 50 µM | 1.43 | > 50 | 1.98 | 17.7 µM | 1.42 | > 50 µM
COc1cc(N2C(=O)[C@H](c3ccccc3)C2c2ccc(SC)cc2)cc(OC)c1OC (stereo not given in full) | 0.0349 | 22.9 µM | 0.0367 | 1.46 µM | 0.023 | 0.0666 µM | 0.0352 | > 100 µM | 0.0352 | > 100 µM |  |  |  |  | > 100 | > 100 | 0.0375 | > 100 µM | 0.0484 | 8.86 µM
COCCOC1=CC(=O)c2c(O)ccc(O)c2C1=O | 1.84 | 3.06 µM and 3.61 µM | 0.32 | 0.661 µM and 1.2 µM | 0.305 | 2.26 µM and 1.04 µM | 3.05 | 3.54 µM and 11.7 µM | 0.914 | 2.34 µM and 2.13 µM | 0.818 | 0.353 µM and 2.16 µM |  | 0.324 µM and 0.323 µM |  | 4.83 |  | 3.55 µM and 3.54 µM | 1.62 | 3.74 µM and 3.58 µM
CC(C)(C)c1cc(/C=N/NC(=O)c2ccccc2NC(=O)c2cccs2)c(O)c(C(C)(C)C)c1 | 0.588 | 15.7 µM | 0.412 | 22.2 µM |  |  | 0.831 | > 100 µM | 0.542 | > 100 µM | 0.459 | 16 µM | 2.46 | 77.7 µM | 1.85 | 29.4 | 0.7 | 7.64 µM | 0.39 | 14 µM
COc1cc(-c2nc3sc(C)cn3c2/C=C2\C(=O)Nc3ccccc32)c(Br)c(OC)c1OC | 21.6 | 50.5 µM | 25.7 | 66.2 µM | 29.2 | > 100 µM | 17.5 | 49.5 µM | 30.3 | > 100 µM | 29.1 | > 100 µM | 4.88 | 23.2 µM | 47.7 | > 100 | 22.9 | 54.8 µM | 34 | > 100 µM
Cc1ccc2cccc(OC(=O)Nc3cccc(C(F)(F)F)c3)c2n1 | 4.82 | 22.2 µM | 3.47 | 10.3 µM | 5.41 | 38.4 µM | 3.19 | 10.9 µM |  |  | 4.06 | 16.2 µM | 2.91 | 10.9 µM | 3.05 | 13.4 | 3.07 | 12.2 µM | 3.05 | 11.2 µM
Clc1cc(Cl)c(OCCCCCCN2CCNCC2)c(Cl)c1 | 1.73 | 3.24 µM | 1.82 | 3.58 µM | 1.86 | 3.82 µM | 1.8 | 3.6 µM | 1.75 | 3.26 µM | 1.84 | 3.65 µM | 2.02 | 4.23 µM | 2.01 | 5.06 | 2.3 | 6.09 µM | 2.09 | 4.27 µM
C#CC(=O)Nc1cccc2c1cc(C)n2-c1nc2c(c(NCc3ccccc3)n1)CCCC2 | 0.0189 | 0.0359 µM | 0.267 | 0.803 µM |  |  | 0.213 | 0.546 µM | < 0.0132 | < 0.0184 µM | 0.303 | 1.13 µM | 0.463 | 1.66 µM | 0.697 | 3.33 | 0.178 | 0.338 µM | 0.165 | 0.351 µM
O=C(O)c1cc(=O)cc(C(=O)O)o1 | > 100 | > 100 µM | > 100 | > 100 µM | > 100 | > 100 µM | > 100 | > 100 µM | > 100 | > 100 µM |  |  | > 100 | > 100 µM | > 100 | > 100 | > 100 | > 100 µM | > 100 | > 100 µM
O=C(COc1cccc(/C=C2\CSc3ccc(Cl)cc3C2=O)c1)c1ccc(Cl)cc1 | 14.5 | 29.5 µM | 5.32 | 20.2 µM | 2.69 | 6.87 µM | 1.76 | 4.13 µM | 1.63 | 3.02 µM | 12.4 | 28.2 µM | 2.29 | 8.09 µM | 0.993 | 18.4 | 2.32 | 5.44 µM | 9.04 | 22.5 µM
